The target in assay [1] is T1, human TREX2 (residues M44-A279) (Homo sapiens, UniProt Q9BQ50).
T1 construct: human TREX2 (residues M44-A279, expressed in E. coli); made in house; host or cells: E. coli
T1 sequence (Q9BQ50 44-279 isoform Q9BQ50-1): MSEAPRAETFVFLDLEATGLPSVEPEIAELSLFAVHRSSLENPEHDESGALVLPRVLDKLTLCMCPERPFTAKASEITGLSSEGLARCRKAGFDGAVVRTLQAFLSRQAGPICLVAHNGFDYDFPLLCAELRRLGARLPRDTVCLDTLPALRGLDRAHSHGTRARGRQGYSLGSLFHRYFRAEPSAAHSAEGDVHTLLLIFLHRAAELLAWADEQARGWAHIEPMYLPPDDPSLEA
The assay can be described thus: hTREX2 Biochemical Assay (fluorescence, dsDNA substrate degradation). The following applies: biochemical selectivity for hTREX1 vs hTREX2. An outline of the steps:
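Fluorogenic dsDNA degradation read at 615 nm (570 nm excitation) after EDTA quench. Final 60 nM substrate, 50 pM His-Tev-tagged enzyme, 5 mM MgCl2, pH 7.4, 1.0% DMSO; 4 h compound–enzyme preincubation then 18 h reaction, both 25 °C; 10-point titration.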

The target of a further assay is T2, hTREX1 (Homo sapiens, UniProt Q9NSU2).
T2 construct: host or cells: HCT116 dual cells
T2 sequence (Q9NSU2 1-314): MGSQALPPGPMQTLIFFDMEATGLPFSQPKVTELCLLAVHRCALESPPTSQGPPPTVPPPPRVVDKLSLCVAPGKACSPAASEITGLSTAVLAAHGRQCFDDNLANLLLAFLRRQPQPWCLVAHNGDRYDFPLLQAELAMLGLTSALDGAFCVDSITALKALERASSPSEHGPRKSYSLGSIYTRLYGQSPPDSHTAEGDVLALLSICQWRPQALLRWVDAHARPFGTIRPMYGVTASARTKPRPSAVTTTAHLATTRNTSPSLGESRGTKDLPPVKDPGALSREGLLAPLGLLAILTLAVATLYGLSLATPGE
The assay can be described thus: hTREX1 HCT116 Cell Assay (HCT116 dual cells, Lucia luciferase reporter of Type I interferon induction). The following applies: TREX1i 4 h before pBR322/BstNI transfection, read after 48 h. Format: cell-based. An outline of the steps:
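Type I interferon induction read as secreted Lucia luciferase 48 h after transfecting pBR322/BstNI digest (1 ug/mL, 100 ng/well) into HCT116 dual reporter cells. Compound added 4 h before transfection at up to 0.1% DMSO; cells in DMEM/10% FBS/25 mM HEPES at 37 °C.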
(In general: Reporter assays use an easily measured gene product as a stand-in for the process of interest.)

The target in a further assay is T3, full length mouse TREX1 (Mus musculus, UniProt Q91XB0).
T3 construct: N-terminally His-Tev tagged full length mouse TREX1; made in house; host or cells: E. coli
T3 sequence (Q91XB0 1-314): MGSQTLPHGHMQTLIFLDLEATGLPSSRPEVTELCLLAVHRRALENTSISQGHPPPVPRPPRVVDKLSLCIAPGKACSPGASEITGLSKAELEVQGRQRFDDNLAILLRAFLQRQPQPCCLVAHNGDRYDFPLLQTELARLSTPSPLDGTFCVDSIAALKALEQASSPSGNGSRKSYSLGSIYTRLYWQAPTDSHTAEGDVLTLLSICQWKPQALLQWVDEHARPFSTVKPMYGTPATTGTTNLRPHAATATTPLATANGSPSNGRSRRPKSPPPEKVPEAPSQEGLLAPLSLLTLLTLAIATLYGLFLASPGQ
The assay can be described thus: mTREX1 Biochemical Assay (fluorescence, dsDNA substrate degradation). Conditions: biochemical, read-out: mTREX1 IC50. An outline of the steps: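 Reaction run 18 h at 25° C. with 60 nM TEX615/quencher-labelled dsDNA and 6 pM mouse TREX1 in Tris buffer (pH 7.4, 5 mM MgCl2, 1.0% DMSO), enzyme having sat 4 h with compound across 10 concentrations. EDTA quench; substrate degradation measured as fluorescence increase.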

Another assay concerns the target T4, full length human TREX1 (Homo sapiens, UniProt Q9NSU2).
T4 construct: N-terminally His-Tev tagged full length human TREX1; made in house; host or cells: E. coli
T4 sequence (Q9NSU2 1-314): T2 sequence (Q9NSU2 1-314)
The assay can be described thus: hTREX1 Biochemical Assay (fluorescence, dsDNA substrate degradation). Conditions: biochemical, read-out: hTREX1 IC50. An outline of the steps: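 Fluorescence rises as enzyme degrades a quenched TEX615-labelled dsDNA substrate (60 nM) in 50 mM Tris, 150 mM NaCl, 5 mM MgCl2, pH 7.4. Full-length His-Tev-tagged human TREX1, 4 pM, sits with compound 4 hours at 25° C before substrate; reaction 18 hours, stopped with EDTA.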

Data on 21 molecules can be found in US20240246946A1, “MODULATORS OF TREX1” (Constellation Pharmaceuticals, Inc., priority 2021, published 2024).

pIC50: −log10 of the molar value.

One may read the pIC50 as the negative decadic logarithm of the IC50, by convention in mol/L. As for `Cc1cnc(C)c(C(c2ccccc2Cl)C(C)c2nc(C(=O)Nc3cnoc3)c(O)c(=O)n2C)n1` (single isomer, unassigned) [Example 120 D2E2], in assay [1], the “hTREX1 vs hTREX2 selectivity” value is “C (C = >50 fold selective for hTREX1)”. Further, the figures for the negative-log IC50 (pIC50) at hTREX1, at full length mouse TREX1 and on full length human TREX1 were below 7.00, below 8.00 and below 8.00, respectively.
For `Cc1cnc(C)c(C(c2cc(F)ccc2Cl)C(C)c2nc(C(=O)Nc3cnoc3)c(O)c(=O)n2C)n1` (single isomer, unassigned) [Example 121 D1E1], in assay [1], the “hTREX1 vs hTREX2 selectivity” value is on record as “C (C = >50 fold selective for hTREX1)”. Further, the pIC50 against hTREX1 was above 8.00; on full length mouse TREX1, 8.00 to 9.00; on full length human TREX1, above 9.00.
On the same counts, the results for `Cc1cnc(C)c(C(c2cc(F)ccc2Cl)C(C)c2nc(C(=O)Nc3cnoc3)c(O)c(=O)n2C)n1` (single isomer, unassigned) [Example 121 D2E1] are “B (B = 25 to 50-fold selective for hTREX1)”, below 7.00, below 8.00 and below 8.00.
For the molecule `Cc1nc(C)c(C(c2ccccc2C#N)C(C)c2nc(C(=O)Nc3cnoc3)c(O)c(=O)n2C)nc1C` (single isomer, unassigned) [Example 122 D2E1], the “hTREX1 vs hTREX2 selectivity” value in assay [1] is on record as “B (B = 25 to 50-fold selective for hTREX1)”. Moreover, the pIC50 was below 7.00 on hTREX1, below 8.00 at full length mouse TREX1 and 8.00 to 9.00 on full length human TREX1.
On to `Cc1cnc(C(c2ccccc2C#N)C(C)c2nc(C(=O)Nc3cnoc3)c(O)c(=O)n2C)c(C)n1` (single isomer, unassigned) [Example 123 D1E1], for which, in assay [1], the “hTREX1 vs hTREX2 selectivity” value was “C (C = >50 fold selective for hTREX1)”. The negative logarithm of the IC50 (pIC50) against hTREX1 is below 7.00; on full length mouse TREX1 it was 8.00 to 9.00; at full length human TREX1, 8.00 to 9.00.
For `Cc1ncc(C(c2ccccc2Cl)C(C)c2nc(C(=O)Nc3cnoc3)c(O)c(=O)n2C)nc1C` (single isomer, unassigned) [Example 125 D2E1], the “hTREX1 vs hTREX2 selectivity” value in assay [1] is “A (A = <25 fold selective for hTREX1)”. The pIC50 against hTREX1 was below 7.00; at full length mouse TREX1, below 8.00; at full length human TREX1, 8.00 to 9.00.
For `CC(c1nc(C(=O)Nc2cnoc2)c(O)c(=O)n1C)C(c1ccccc1C#N)c1c[nH]nc1F` (single isomer, unassigned) [Example 127 D1E1], the “hTREX1 vs hTREX2 selectivity” value in assay [1] is “B (B = 25 to 50-fold selective for hTREX1)”. The values for the pIC50 at hTREX1, at full length mouse TREX1 and on full length human TREX1 were above 8.00, above 9.00 and above 9.00, respectively.
`CC(c1nc(C(=O)Nc2cnoc2)c(O)c(=O)n1C)C(c1ccccc1C#N)c1c[nH]nc1F` (single isomer, unassigned) [Example 127 D1E2]: the “hTREX1 vs hTREX2 selectivity” value in assay [1] is “B (B = 25 to 50-fold selective for hTREX1)”. Also, the negative-log IC50 (pIC50) on hTREX1 is below 7.00; on full length mouse TREX1 it was below 8.00; on full length human TREX1 it was 8.00 to 9.00.
On to `CC(c1nc(C(=O)Nc2cnoc2)c(O)c(=O)n1C)C(c1ccccc1Cl)c1cn(C)nc1F` (single isomer, unassigned) [Example 130 D1E1], for which, in assay [1], the “hTREX1 vs hTREX2 selectivity” value was “B (B = 25 to 50-fold selective for hTREX1)”. Moreover, the pIC50 against hTREX1 is above 8.00; on full length mouse TREX1 it was above 9.00; on full length human TREX1 it was above 9.00.
Regarding `Cc1ccn(C(c2ccccc2C#N)C(C)c2nc(C(=O)Nc3cnoc3)c(O)c(=O)n2C)n1` (single isomer, unassigned) [Example 132 D1E2], the “hTREX1 vs hTREX2 selectivity” value in assay [1] is given as “C (C = >50 fold selective for hTREX1)”. The pIC50 against hTREX1 was 7.00 to 8.00; at full length mouse TREX1, 8.00 to 9.00; at full length human TREX1, above 9.00.
On the same counts, the results for `Cc1cnn(C(c2ccccc2Cl)C(C)c2nc(C(=O)Nc3cnoc3)c(O)c(=O)n2C)c1` (single isomer, unassigned) [Example 133 D1E2] are “A (A = <25 fold selective for hTREX1)”, 7.00 to 8.00, 8.00 to 9.00 and 8.00 to 9.00.
In the case of `CCc1cnn(C(c2ccccc2Cl)C(C)c2nc(C(=O)Nc3cnoc3)c(O)c(=O)n2C)c1` (single isomer, unassigned) [Example 134 D1E1], the “hTREX1 vs hTREX2 selectivity” value in assay [1] is “A (A = <25 fold selective for hTREX1)”. The figures for the pIC50 at hTREX1, at full length mouse TREX1 and on full length human TREX1 were below 7.00, 8.00 to 9.00 and 8.00 to 9.00, respectively.
Take `CC(C)c1cnn(C(c2ccccc2Cl)C(C)c2nc(C(=O)Nc3cnoc3)c(O)c(=O)n2C)c1` (single isomer, unassigned) [Example 135 D1E1]: in assay [1], the “hTREX1 vs hTREX2 selectivity” value was “B (B = 25 to 50-fold selective for hTREX1)”. Besides, the values for the pIC50 against hTREX1, on full length mouse TREX1 and on full length human TREX1 were below 7.00, 8.00 to 9.00 and 8.00 to 9.00, respectively.
Take `Cc1cc(C)n(C(c2ccccc2Cl)C(C)c2nc(C(=O)Nc3cnoc3)c(O)c(=O)n2C)n1` (single isomer, unassigned) [Example 136 D1E2]: in assay [1], the “hTREX1 vs hTREX2 selectivity” value was “B (B = 25 to 50-fold selective for hTREX1)”. Besides, the figures for the pIC50 on hTREX1, at full length mouse TREX1 and at full length human TREX1 were 7.00 to 8.00, below 8.00 and above 9.00, respectively.
On the same counts, the results for `Cc1cc(C)n(C(c2ccccc2C#N)C(C)c2nc(C(=O)Nc3cnoc3)c(O)c(=O)n2C)n1` (single isomer, unassigned) [Example 137 D1E1] are “B (B = 25 to 50-fold selective for hTREX1)”, above 8.00, 8.00 to 9.00 and above 9.00.
For `Cc1ccnn1C(c1ccccc1C#N)C(C)c1nc(C(=O)Nc2cnoc2)c(O)c(=O)n1C` (single isomer, unassigned) [Example 138 D1E1] the same measures were “B (B = 25 to 50-fold selective for hTREX1)”, 7.00 to 8.00, 8.00 to 9.00 and above 9.00.
For `CC(c1nc(C(=O)Nc2cnoc2)c(O)c(=O)n1C)C(c1ccccc1Cl)n1cc(C(F)(F)F)cn1` (single isomer, unassigned) [Example 139 D1E1] the same measures were “A (A = <25 fold selective for hTREX1)”, below 7.00, 8.00 to 9.00 and 8.00 to 9.00.
Regarding `CC(c1nc(C(=O)Nc2cnoc2)c(O)c(=O)n1C)C(c1ccccc1Cl)n1nccc1C#N` (single isomer, unassigned) [Example 140 D1E1], in assay [1], the “hTREX1 vs hTREX2 selectivity” value is “B (B = 25 to 50-fold selective for hTREX1)”. The negative logarithm of the IC50 (pIC50) is 7.00 to 8.00 against hTREX1, 8.00 to 9.00 at full length mouse TREX1 and above 9.00 at full length human TREX1.
On the same counts, the results for `CC(c1nc(C(=O)Nc2cnoc2)c(O)c(=O)n1C)C(c1ccccc1Cl)n1cc2ccccc2n1` (single isomer, unassigned) [Example 141 D1E1] are “A (A = <25 fold selective for hTREX1)”, below 7.00, 8.00 to 9.00 and 8.00 to 9.00.
With `Cc1cn(C(c2ccccc2Cl)C(C)c2nc(C(=O)Nc3cnoc3)c(O)c(=O)n2C)cn1` (single isomer, unassigned) [Example 142 D1E2], the “hTREX1 vs hTREX2 selectivity” value in assay [1] was “A (A = <25 fold selective for hTREX1)”. In addition, the negative logarithm of the IC50 (pIC50) at hTREX1 was below 7.00; on full length mouse TREX1, 8.00 to 9.00; at full length human TREX1, above 9.00.
For `CC(c1nc(C(=O)Nc2cnoc2)c(O)c(=O)n1C)C(c1ccccc1Cl)n1cnc2ccccc21` (single isomer, unassigned) [Example 143 D1E1] the same measures were “B (B = 25 to 50-fold selective for hTREX1)”, 7.00 to 8.00, 8.00 to 9.00 and above 9.00.
